# Patent publication US9765060B2 (Gilead Sciences, Inc., priority 2014, dated 2017)
# Target: PI3K isoform δ (Homo sapiens (Human), UniProt O00329)
# Assay: TR-FRET assay of enzymatic activity of class I PI3K isoforms
# Details: read-out: IC50 (nM) for PI3K isoform δ (Table 3); TR-FRET; 2× Km ATP, 2 μM PIP2; incubated for 30 minutes at 25° C.
# PI3K isoform δ, sequence (O00329 whole entry, canonical isoform): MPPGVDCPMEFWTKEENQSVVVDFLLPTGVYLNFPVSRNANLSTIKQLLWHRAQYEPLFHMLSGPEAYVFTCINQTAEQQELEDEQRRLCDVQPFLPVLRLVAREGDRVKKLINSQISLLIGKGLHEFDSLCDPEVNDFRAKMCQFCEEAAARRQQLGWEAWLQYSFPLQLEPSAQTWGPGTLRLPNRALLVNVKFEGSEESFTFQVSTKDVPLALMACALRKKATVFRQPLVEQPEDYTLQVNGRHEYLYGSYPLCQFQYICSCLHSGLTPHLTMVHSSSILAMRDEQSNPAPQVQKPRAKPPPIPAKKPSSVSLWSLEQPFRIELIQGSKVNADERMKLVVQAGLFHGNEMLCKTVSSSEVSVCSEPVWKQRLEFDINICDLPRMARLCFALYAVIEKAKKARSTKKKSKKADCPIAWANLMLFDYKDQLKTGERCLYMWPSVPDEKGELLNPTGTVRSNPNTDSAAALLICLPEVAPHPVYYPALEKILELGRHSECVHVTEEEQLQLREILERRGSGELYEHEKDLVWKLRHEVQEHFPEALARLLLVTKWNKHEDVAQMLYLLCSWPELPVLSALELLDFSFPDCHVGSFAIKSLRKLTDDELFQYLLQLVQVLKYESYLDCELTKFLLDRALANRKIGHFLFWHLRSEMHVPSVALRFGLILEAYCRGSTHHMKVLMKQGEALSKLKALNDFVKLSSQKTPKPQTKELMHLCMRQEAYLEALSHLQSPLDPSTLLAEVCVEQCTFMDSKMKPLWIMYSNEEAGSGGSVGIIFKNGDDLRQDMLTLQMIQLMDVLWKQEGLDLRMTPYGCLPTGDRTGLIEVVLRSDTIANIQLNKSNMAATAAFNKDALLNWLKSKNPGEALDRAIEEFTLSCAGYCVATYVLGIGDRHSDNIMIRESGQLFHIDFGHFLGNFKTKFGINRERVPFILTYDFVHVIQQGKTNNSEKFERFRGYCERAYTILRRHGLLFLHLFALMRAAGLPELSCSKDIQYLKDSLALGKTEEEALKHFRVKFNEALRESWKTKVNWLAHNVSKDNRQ
# PI3K isoform δ, sequence (P27986 whole entry partner, canonical isoform): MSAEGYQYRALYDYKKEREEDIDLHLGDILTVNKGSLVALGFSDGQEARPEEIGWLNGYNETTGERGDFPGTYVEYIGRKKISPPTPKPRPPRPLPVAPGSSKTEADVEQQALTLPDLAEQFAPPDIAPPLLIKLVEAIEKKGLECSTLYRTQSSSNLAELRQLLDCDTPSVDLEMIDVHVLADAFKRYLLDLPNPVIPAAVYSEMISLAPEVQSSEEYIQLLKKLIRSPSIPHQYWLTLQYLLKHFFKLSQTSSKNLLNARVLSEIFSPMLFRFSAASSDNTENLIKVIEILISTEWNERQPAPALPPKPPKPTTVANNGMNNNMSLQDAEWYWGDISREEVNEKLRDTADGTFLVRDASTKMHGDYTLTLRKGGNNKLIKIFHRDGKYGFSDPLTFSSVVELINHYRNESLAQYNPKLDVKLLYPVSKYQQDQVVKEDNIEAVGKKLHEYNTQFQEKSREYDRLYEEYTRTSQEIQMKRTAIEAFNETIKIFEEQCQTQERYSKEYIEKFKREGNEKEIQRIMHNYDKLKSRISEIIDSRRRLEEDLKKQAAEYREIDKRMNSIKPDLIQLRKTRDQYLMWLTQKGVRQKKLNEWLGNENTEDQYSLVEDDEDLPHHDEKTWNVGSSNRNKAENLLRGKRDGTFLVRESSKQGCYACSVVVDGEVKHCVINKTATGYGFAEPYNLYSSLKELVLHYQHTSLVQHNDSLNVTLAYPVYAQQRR
row,SMILES,IC50 [nM]
1,"C[C@H](Nc1nc(N)nc(N)c1C#N)c1nc2cccc(OCC(=O)N3CCCCC3)c2c(=O)n1-c1ccccc1 [Compound 28, (S)-2,4-diamino-6-((1-(4-oxo-5-(2-oxo-2-(piperidin-1-yl)ethoxy)-3-phenyl-3,4-dihydroquinazolin-2-yl)ethyl)amino)pyrimidine-5-carbonitrile]",2
2,"C[C@H](Nc1nc(N)nc(N)c1C#N)c1nc2cccc(OCCN3CCN(c4ccccc4)CC3)c2c(=O)n1-c1ccccc1 [Compound 31, (S)-2,4-diamino-6-((1-(4-oxo-3-phenyl-5-(2-(4-phenylpiperazin-1-yl)ethoxy)-3,4-dihydroquinazolin-2-yl)ethyl)amino)pyrimidine-5-carbonitrile]",4
3,"Cc1nccn1CCOc1cccc2nc([C@H](C)Nc3nc(N)nc(N)c3C#N)n(-c3ccccc3)c(=O)c12 [Compound 32, (S)-2,4-diamino-6-((1-(5-(2-(2-methyl-1H-imidazol-1-yl)ethoxy)-4-oxo-3-phenyl-3,4-dihydroquinazolin-2-yl)ethyl)amino)pyrimidine-5-carbonitrile]",85
4,"C[C@H](Nc1nc(N)nc(N)c1C#N)c1nc2cccc(OCC(=O)N3CCOCC3)c2c(=O)n1-c1ccccc1 [Compound 35, (S)-2,4-diamino-6-((1-(5-(2-morpholino-2-oxoethoxy)-4-oxo-3-phenyl-3,4-dihydroquinazolin-2-yl)ethyl)amino)pyrimidine-5-carbonitrile]",7
5,"C[C@H](Nc1nc(N)nc(N)c1C#N)c1nc2c(F)ccc(CCC(N)=O)c2c(=O)n1-c1ccccc1 [Compound 38, (S)-3-(2-(1-((2,6-diamino-5-cyanopyrimidin-4-yl)amino)ethyl)-8-fluoro-4-oxo-3-phenyl-3,4-dihydroquinazoline-5-yl)propanamide]",0.5
6,"C[C@H](Nc1nc(N)nc(N)c1C#N)c1nc2c(F)ccc(CCC(N)=O)c2c(=O)n1-c1cc(F)cc(F)c1 [Compound 39, (S)-3-(2-(1-((2,6-diamino-5-cyanopyrimidin-4-yl)amino)ethyl)-3-(3,5-difluorophenyl)-8-fluoro-4-oxo-3,4-dihydroquinazoline-5-yl)propanamide]",2
7,"C[C@H](Nc1nc(N)nc(N)c1C#N)c1nc2cccc(CCC(N)=O)c2c(=O)n1-c1cc(F)cc(F)c1 [Compound 40, (S)-3-(2-(1-((2,6-diamino-5-cyanopyrimidin-4-yl)amino)ethyl)-3-(3,5-difluorophenyl)-4-oxo-3,4-dihydroquinazoline-5-yl)propanamide]",4
8,"C[C@H](Nc1nc(N)nc(N)c1Cl)c1nc2c(F)ccc(CCC(N)=O)c2c(=O)n1-c1cc(F)cc(F)c1 [Compound 41, (S)-3-(2-(1-((2,6-diamino-5-chloropyrimidin-4-yl)amino)ethyl)-3-(3,5-difluorophenyl)-8-fluoro-4-oxo-3,4-dihydroquinazoline-5-yl)propanamide]",25
9,"C[C@H](Nc1nc(N)nc(N)c1Cl)c1nc2cccc(CCC(N)=O)c2c(=O)n1-c1cc(F)cc(F)c1 [Compound 42, (S)-3-(2-(1-((2,6-diamino-5-chloropyrimidin-4-yl)amino)ethyl)-3-(3,5-difluorophenyl)-4-oxo-3,4-dihydroquinazoline-5-yl)propanamide]",20
10,"C[C@H](Nc1nc(N)nc(N)c1Cl)c1nc2cccc(CCC(N)=O)c2c(=O)n1-c1ccccc1 [Compound 43, (S)-3-(2-(1-((2,6-diamino-5-chloropyrimidin-4-yl)amino)ethyl)-4-oxo-3-phenyl-3,4-dihydroquinazoline-5-yl)propanamide]",9

# The remaining lines, values ahead:
row,IC50 [nM],SMILES
1,220,"C[C@H](Nc1nc(N)nc(N)c1C#N)c1nc2cccc(OCC(C)(CO)CO)c2c(=O)n1-c1ccccc1 [Compound 29, (S)-2,4-diamino-6-((1-(5-(3-hydroxy-2-(hydroxymethyl)-2-methylpropoxy)-4-oxo-3-phenyl-3,4-dihydroquinazolin-2-yl)ethyl)amino)pyrimidine-5-carbonitrile]"
2,6,"C[C@H](Nc1nc(N)nc(N)c1C#N)c1nc2cccc(OCCN3CCCCC3)c2c(=O)n1-c1ccccc1 [Compound 30, (S)-2,4-diamino-6-((1-(4-oxo-3-phenyl-5-(2-(piperidin-1-yl)ethoxy)-3,4-dihydroquinazolin-2-yl)ethyl)amino)pyrimidine-5-carbonitrile]"
3,24,"C[C@H](Nc1nc(N)nc(N)c1C#N)c1nc2cccc(OCCC3CCCN3C)c2c(=O)n1-c1ccccc1 (stereo partly drawn) [Compound 33, 2,4-diamino-6-(((1S)-1-(5-(2-(1-methylpyrrolidin-2-yl)ethoxy)-4-oxo-3-phenyl-3,4-dihydroquinazolin-2-yl)ethyl)amino)pyrimidine-5-carbonitrile]"
4,46,"C[C@H](Nc1nc(N)nc(N)c1C#N)c1nc2cccc(OCC3(C)COC3)c2c(=O)n1-c1ccccc1 [Compound 34, (S)-2,4-diamino-6-((1-(5-((3-methyloxetan-3-yl)methoxy)-4-oxo-3-phenyl-3,4-dihydroquinazolin-2-yl)ethyl)amino)pyrimidine-5-carbonitrile]"
5,2,"CC1CCN(C(=O)COc2cccc3nc([C@H](C)Nc4nc(N)nc(N)c4C#N)n(-c4ccccc4)c(=O)c23)CC1 [Compound 36, (S)-2,4-diamino-6-((1-(5-(2-(4-methylpiperidin-1-yl)-2-oxoethoxy)-4-oxo-3-phenyl-3,4-dihydroquinazolin-2-yl)ethyl)amino)pyrimidine-5-carbonitrile]"
6,0.7,"CC(Cc1cccc2nc([C@H](C)Nc3nc(N)nc(N)c3C#N)n(-c3ccccc3)c(=O)c12)N1CCCC1 (stereo partly drawn) [Compound 45, (S)-2,4-diamino-6-((1-(4-oxo-3-phenyl-5-(2-(pyrrolidin-1-yl)propyl)-3,4-dihydroquinazolin-2-yl)ethyl)amino)pyrimidine-5-carbonitrile]"
7,0.4,"C[C@H](Nc1nc(N)nc(N)c1C#N)c1nc2cccc(CCCN3CCCCC3)c2c(=O)n1-c1ccccc1 [Compound 46, (S)-2,4-diamino-6-((1-(4-oxo-3-phenyl-5-(3-(piperidin-1-yl)propyl)-3,4-dihydroquinazolin-2-yl)ethyl)amino)pyrimidine-5-carbonitrile]"
8,2,"C[C@H](Nc1nc(N)nc(N)c1C#N)c1nc2cccc(CCCN3CCC(F)(F)C3)c2c(=O)n1-c1ccccc1 [Compound 47, (S)-2,4-diamino-6-((1-(5-(3-(3,3-difluoropyrrolidin-1-yl)propyl)-4-oxo-3-phenyl-3,4-dihydroquinazolin-2-yl)ethyl)amino)pyrimidine-5-carbonitrile]"
9,0.5,"C[C@H](Nc1nc(N)nc(N)c1C#N)c1nc2cccc(CCCN3CCC(F)(F)CC3)c2c(=O)n1-c1ccccc1 [Compound 48, (S)-2,4-diamino-6-((1-(5-(3-(4,4-difluoropiperidin-1-yl)propyl)-4-oxo-3-phenyl-3,4-dihydroquinazolin-2-yl)ethyl)amino)pyrimidine-5-carbonitrile]"
10,1.4,"CC1COCC(C)N1CCCc1cccc2nc([C@H](C)Nc3nc(N)nc(N)c3C#N)n(-c3ccccc3)c(=O)c12 (stereo partly drawn) [Compound 49, 2,4-diamino-6-(((1S)-1-(5-(3-(3,5-dimethylmorpholino)propyl)-4-oxo-3-phenyl-3,4-dihydroquinazolin-2-yl)ethyl)amino)pyrimidine-5-carbonitrile]"
